Measurements as given in ChEMBL document CHEMBL3244087, “Ergoline congeners as potential inhibitors of prolactin release. 3. Derivatives of 3-phenylpiperidine” (1977).

test system: Rattus norvegicus; test: Inhibition of prolactin release in reserpinized rat assessed as reduction in serum prolactin level at 2 mg, ip after 1 hr post dose by radioimmunoassay relative to untreated control; format: functional

| SMILES | inhibition (INH) |
| --- | --- |
| COc1cc(C2CC(CO)CN(C)C2)c(OC)cc1C (stereo unspecified) | -2% |
| CCOC(=O)C1CC(c2cc(OC)c(C)cc2OC)CN(C)C1 (stereo unspecified) | 5% |
| COc1cc(C2CC(CC#N)CN(C)C2)c(OC)cc1C (stereo unspecified) | -13% |
| CCOC(=O)C1=CC(c2cc(OC)c(C)cc2OC)CN(C)C1 (stereo unspecified) | -5% |

test system: Rattus norvegicus; test: Inhibition of prolactin release in reserpinized rat assessed as reduction in serum prolactin level at 1 mg, ip after 1 hr post dose by radioimmunoassay relative to untreated control; format: functional

| SMILES | inhibition (INH) |
| --- | --- |
| CCOC(=O)C1CN(C)CC(c2cc(OC)c(C)cc2OC)C1=O (stereo unspecified) | 22% |
| CN1CCc2cccc3c2[C@H]1Cc1ccc(O)c(O)c1-3 [APOMORPHINE] | 29% |
